Patent US7750155B2, “Pyrazinyl hydroxyacrylamide compounds having an inhibitory effect on the activity of histone deacetylase” (Astellas Pharma Inc., priority 2006, dated 2010)

What was measured:
[1] = system: T1, human histone deacetylase partially purified from human T cell leukemia Jurkat cells; assay: Test 1: Determination of histone deacetylase inhibitor activity ([3H]acetyl histone deacetylation); assay type: biochemical; conditions: partially purified human HDAC from Jurkat cells, [3H]acetyl histone substrate, 25° C., 30 minutes; read-out: Test 1: HDAC inhibitory activity IC50
T1 construct: The human histone deacetylase was partially purified from human T cell leukemia Jurkat cells
Procedure: Test 1: Determination of Histone Deacetylase Inhibitor Activity
The partial purification of human histone deacetylase, the preparation of [^3H] acetyl histones, and the assay for histone deacetylase activity were performed basically according to the method as proposed by Yoshida et al. as follows.
Partial Purification of Human Histone Deacetylase
The human histone deacetylase was partially purified from human T cell leukemia Jurkat cells. Jurkat cells (5×10^8 cells) were suspended in 40 mL of the HDA buffer consisting of 15 mM potassium phosphate, pH 7.5, 5% glycerol and 0.2 mM EDTA. After homogenization, nuclei were collected by centrifugation (35,000×g, 10 min) and homogenized in 20 mL of the same buffer supplemented with 1 M (NH4)2SO4. The viscous homogenate was sonicated and clarified by centrifugation (35,000×g, 10 min), and the deacetylase was precipitated by raising the concentration of (NH4)2SO4 to 3.5 M. The precipitated protein was dissolved in 10 mL of the HDA buffer and dialyzed against 4 liters of the same buffer. The dialyzate was then loaded onto a DEAE-cellulose (Whatman DE52) column (25×85 mm) equilibrated with the same buffer and eluted with 300 mL of a linear gradient (0-0.6 M) of NaCl. A single peak of histone deacetylase activity appeared between 0.3 and 0.4 M NaCl.
Preparation of [^3H] Acetyl Histone
To obtain [^3H] acetyl-labeled histone as the substrate for the histone deacetylase assay, 1×10^8 cells of Jurkat in 20 mL of RPMI-1640 medium (supplemented with 10% FBS, penicillin (50 units/mL) and streptomycin (50 μg/mL)) were incubated with 300 MBq [^3H] sodium acetate in the presence of 5 mM sodium butyrate for 30 minutes in 5% CO2-95% air atmosphere at 37° C. in a […] flask, harvested into a centrifuge tube (50 mL), collected by centrifugation at 1000 rpm for 10 minutes, and washed once with phosphate-buffered saline. The washed cells were suspended in 15 mL of ice-cold lysis buffer (10 mM Tris-HCl, 50 mM sodium bisulfite, 1% Triton X-100, 10 mM MgCl2, 8.6% sucrose, pH 6.5). After Dounce homogenization (30 stroke), the nuclei were collected by centrifugation at 1000 rpm for 10 minutes, washed 3 times with 15 mL of the lysis buffer, and once with 15 mL of ice-cooled washing buffer (10 mM Tris-HCl, 13 mM EDTA, pH 7.4) successively. The pellet was suspended in 6 mL of ice-cooled water using a mixer, and 68 μl of H2SO4 was added to the suspension to give a concentration of 0.4 N. After incubation at 4° C. for 1 hour, the suspension was centrifuged for 5 minutes at 15,000 rpm, and the supernatant was taken and mixed with 60 mL of acetone. After overnight incubation at −20° C., the coagulated material was collected by microcentrifugation, air-dried, and stored at −80° C.
Assay for Histone Deacetylase Activity
For the standard assay, 10 μl of [^3H] acetyl-labeled histones were added to 90 μl of the enzyme fraction, and the mixture was incubated at 25° C. for 30 minutes. The reaction was stopped by addition of 10 μl of HCl. The released [^3H] acetic acid was extracted with 1 mL of ethyl acetate, and 0.9 mL of the solvent layer was taken into 10 mL of toluene scintillation solution for determination of radioactivity.

[2] = system: splenic cells of Lewis rats (T lymphocyte blastogenesis); assay: Test 2: T-cell growth inhibitor activity (T lymphocyte blastogenesis, Concanavalin A, AlamarBlue); assay type: cell-based; conditions: Lewis rat splenic cells, Concanavalin A 1 μg/mL, 72 hours, read-out: Test 2: T-cell growth inhibitory activity IC50
Procedure: Test 2: Determination of T-Cell Growth Inhibitor Activity
The T lymphocyte blastogenesis test was performed in microtiter plates with each well containing 1.5×10^5 splenic cells of Lewis rats in 0.1 mL RPMI-1640 medium supplemented with 10% fetal bovine serum (FBS), […] 2-mercaptoethanol, penicilln (100 units/mL) and streptomycin (100 μg/mL), to which Concanavalin A (1 μg/mL) was added. The cells were incubated at 37° C. in a humidified atmosphere of 5% CO2 for 72 hours. After the culture period, suppressive activities of the test compounds in T lymphocyte blastogenesis were quantified by AlamarBlue (trademark) Assay. The test samples were dissolved in DMSO and further diluted with RPMI-1640 medium and added to the culture. The activities of the test compounds were expressed as IC50.

[3] = system: blood corpuscles (platelet, white blood corpuscle); assay: Test 4: Measurement of change rate of blood corpuscles; assay type: in vivo; conditions: 4 mg/kg oral once a day for 14 days, male LEW rats, blood 24 hr after last administration
Procedure: Test 4: Measurement of Change Rate of Blood Corpuscles Experimental drugs were oral administered to rats (male LEW) once a day for continuous 14 days. The blood sample contained heparin and EDTA were collected at 24 hr after last administration, and the number of differential blood corpuscles were measured by auto-hemocytometer (Sysmex).

Row | IC50 [1] | decrease rate (%) platelet [3] | SMILES | IC50 [2] | decrease rate (%) white blood corpuscle [3]
1 | 3.3 nM | 9.4% | Cl.Cl.O=C(/C=C/c1cnc(N[C@@H]2CCN(CCc3ccc(F)c(F)c3)C2)cn1)NO [Example 5, (2E)-3-[5-({(3R)-1-[2-(3,4-difluorophenyl)ethyl]-3-pyrrolidinyl}amino)-2-pyrazinyl]-N-hydroxyacrylamide dihydrochloride] | 0.93 nM | 40.3%
2 | 1.6 nM | 14.2% | Cl.Cl.O=C(/C=C/c1cnc(N[C@@H]2CCN(CCc3ccc(Br)cc3)C2)cn1)NO [Example 19, (2E)-3-[5-({(3R)-1-[2-(4-bromophenyl)ethyl]-3-pyrrolidinyl}amino)-2-pyrazinyl]-N-hydroxyacrylamide dihydrochloride] | 1.3 nM | 38.1%
3 | 1.7 nM | 24.3% | Cl.Cl.O=C(/C=C/c1cnc(N[C@@H]2CCCN(CCc3cccc(F)c3)C2)cn1)NO [Example 6, (2E)-3-[5-({(3R)-1-[2-(3-fluorophenyl)ethyl]-3-piperidinyl}amino)-2-pyrazinyl]-N-hydroxyacrylamide dihydrochloride] | 0.65 nM | 72.2%
4 | 2.3 nM | 18.3% | Cl.Cl.O=C(/C=C/c1cnc(N[C@@H]2CCN(CCc3cccc(F)c3)C2)cn1)NO [Example 1, (2E)-3-[5-({(3R)-1-[2-(3-fluorophenyl)ethyl]-3-pyrrolidinyl}amino)-2-pyrazinyl]-N-hydroxyacrylamide dihydrochloride] | 2.4 nM | 43.7%
5 | 2 nM | 18.6% | Cl.Cl.O=C(/C=C/c1cnc(N[C@@H]2CCN(CCc3ccc(Cl)cc3)C2)cn1)NO [Example 23, (2E)-3-[5-({(3R)-1-[2-(4-chlorophenyl)ethyl]-3-pyrrolidinyl}amino)-2-pyrazinyl]-N-hydroxyacrylamide dihydrochloride] | 1.7 nM | 64.6%
6 | 1.8 nM | 6.2% | Cl.Cl.O=C(/C=C/c1cnc(N[C@@H]2CCCN(CCC3CCCCC3)C2)cn1)NO [Example 25, (2E)-3-(5-{[(3R)-1-(2-cyclohexylethyl)-3-piperidinyl]amino}-2-pyrazinyl)-N-hydroxyacrylamide dihydrochloride] | 2.2 nM | 63.1%
7 | 2.2 nM | 3.4% | COc1ccc(CCN2CC[C@@H](Nc3cnc(/C=C/C(=O)NO)cn3)C2)cc1.Cl.Cl [Example 18, (2E)-N-hydroxy-3-[5-({(3R)-1-[2-(4-methoxyphenyl)ethyl]-3-pyrrolidinyl}amino)-2-pyrazinyl]acrylamide dihydrochloride] | 2.2 nM | 31.7%
